# According to publication PMC6522510 (Nature Communications, 2019):
# Like-named read-outs stand apart in the source and are kept apart here.
# How the values were obtained:
# CHRF288-11 = experiment: cells; set-up: species or system AML cell lines (8); Secondary HTS, 10-point dose-response in triplicate, Cell Titer Glo viability, four-parameter fit EC50; details: 72 h, read-out: CHRF288-11
# CMS = experiment: cells; set-up: species or system AML cell lines (8); Secondary HTS, 10-point dose-response in triplicate, Cell Titer Glo viability, four-parameter fit EC50; details: 72 h, read-out: CMS
# M07e = experiment: cells; set-up: species or system AML cell lines (8); Secondary HTS, 10-point dose-response in triplicate, Cell Titer Glo viability, four-parameter fit EC50; details: M-07e, 72 h, read-out: M07e
# ML-2 = experiment: cells; set-up: species or system AML cell lines (8); Secondary HTS, 10-point dose-response in triplicate, Cell Titer Glo viability, four-parameter fit EC50; details: Homo sapiens, ML-2, 72 h, read-out: ML-2
# U937 [1] = experiment: cells; set-up: species or system AML cell lines (8); Secondary HTS, 10-point dose-response in triplicate, Cell Titer Glo viability, four-parameter fit EC50; details: Homo sapiens, U-937, 72 h, read-out: U937
# MOLM-13 [2] = experiment: cells; set-up: species or system AML cell lines (8); Secondary HTS, 10-point dose-response in triplicate, Cell Titer Glo viability, four-parameter fit EC50; details: Homo sapiens, MOLM-13, 72 h, read-out: MOLM-13
# MV4-11 [3] = experiment: cells; set-up: species or system AML cell lines (8); Secondary HTS, 10-point dose-response in triplicate, Cell Titer Glo viability, four-parameter fit EC50; details: Homo sapiens, MV4-11, 72 h, read-out: MV4-11
# CMK = experiment: Secondary dose-response HTS, Cell Titer Glo; assay type: cell-based, human; details: Homo sapiens, CMK, read-out: average effective concentration, CMK
# MV4-11 [4] = experiment: Secondary dose-response HTS, Cell Titer Glo; assay type: cell-based, human; details: Homo sapiens; secondary high-throughput screen; MV4-11; read-out: average effective concentration, MV4-11
# MOLM-13 [5] = experiment: Secondary dose-response HTS, Cell Titer Glo; assay type: cell-based, human; details: Homo sapiens; secondary high-throughput screen; MOLM-13; read-out: average effective concentration, MOLM-13
# U937 [6] = experiment: Secondary dose-response HTS, Cell Titer Glo; assay type: cell-based, human; details: Homo sapiens, U-937, read-out: average effective concentration, U937
# [7] = secondary high-throughput screen
SMILES,EC50 (U937 [1]) [µM],EC50 (MOLM-13 [2]) [µM],EC50 (MV4-11 [3]) [µM],EC50 (MV4-11 [4]) [µM],EC50 (MOLM-13 [5]) [µM],EC50 (U937 [6]) [µM],EC50 (CHRF288-11) [µM],EC50 (CMS) [µM],EC50 (M07e) [µM],EC50 (ML-2) [µM],EC50 (CMK; [7]) [µM],EC50 (CMK) [µM]
"N[C@@H]1C[C@H]1c1ccccc1 (racemic) [SJ000286124, TRANYLCYPROMINE]",> 10,> 10,> 10,,,,> 10,> 10,> 10,> 10,,
CC(=O)O[C@H]1CC[C@@]2(C)C(=CC[C@@H]3[C@@H]2CC[C@]2(C)C(c4cccnc4)=CC[C@@H]32)C1 [ABIRATERONE ACETATE],> 10,> 10,> 10,,,,> 10,> 10,> 10,> 10,5.3,
COc1cc2nccc(Oc3ccc(NC(=O)C4(C(=O)Nc5ccc(F)cc5)CC4)cc3)c2cc1OC [CABOZANTINIB],> 10,,,0.001,0.05,,> 10,> 10,> 10,> 10,7.3,
Cn1c(=O)n(-c2ccc(C(C)(C)C#N)cc2)c2c3cc(-c4cnc5ccccc5c4)ccc3ncc21 [DACTOLISIB],> 10,> 10,> 10,,,,> 10,> 10,> 10,> 10,0.066,
NC(=O)c1ccc(I)c([N+](=O)[O-])c1 [INIPARIB],> 10,,> 10,,> 10,,> 10,> 10,> 10,> 10,,
Cc1ncc(CNC(=O)N(CCCl)N=O)c(N)n1 [NIMUSTINE],> 10,> 10,> 10,,,,> 10,> 10,> 10,> 10,10,
"Nc1ncnc2c1ncn2[C@@H]1C=C(CO)[C@@H](O)[C@H]1O [SJ000784248, NEPLANOCIN A]",1.1,0.36,> 10,,,,6.5,> 10,> 10,5.8,,
"N[C@@H]1C[C@H]1c1cc(F)cc(F)c1OCc1ccccc1 [SJ000785902, S2101]",> 10,> 10,> 10,,,,> 10,> 10,> 10,> 10,,

# The next lines start with results.
EC50 (U937 [1]) [µM],EC50 (MOLM-13 [2]) [µM],EC50 (MV4-11 [3]) [µM],EC50 (MV4-11 [4]) [µM],EC50 (MOLM-13 [5]) [µM],EC50 (U937 [6]) [µM],SMILES,EC50 (CHRF288-11) [µM],EC50 (CMS) [µM],EC50 (M07e) [µM],EC50 (ML-2) [µM],EC50 (CMK; [7]) [µM],EC50 (CMK) [µM]
> 10,> 10,> 10,,,,CCC(C)n1ncn(-c2ccc(N3CCN(c4ccc(OCC5COC(Cn6cncn6)(c6ccc(Cl)cc6Cl)O5)cc4)CC3)cc2)c1=O (stereo not shown) [ITRACONAZOLE],> 10,> 10,> 10,> 10,6.4,
,> 10,> 10,,,,CC(=O)c1c(C)c2cnc(Nc3ccc(N4CCNCC4)cn3)nc2n(C2CCCC2)c1=O [Palbociclib],> 10,,> 10,> 10,,
> 10,> 10,> 10,,,,CS(=O)(=O)N1CCN(Cc2cc3nc(-c4cccc5[nH]ncc45)nc(N4CCOCC4)c3s2)CC1 [Pictilisib],> 10,> 10,> 10,> 10,,
> 10,0.19,> 10,,,,"Nc1nccc2c1ncn2[C@@H]1C=C(CO)[C@@H](O)[C@H]1O [SJ000785904, 3-DEAZANEPLANOCIN]",1.8,> 10,0.001,> 10,,
,> 10,> 10,,,0.54,Cn1cncc1[C@@](N)(c1ccc(Cl)cc1)c1ccc2c(c1)c(-c1cccc(Cl)c1)cc(=O)n2C [TIPIFARNIB],> 10,> 10,> 10,> 10,,1.4
> 10,,> 10,,10,,COc1cc2c(Nc3ccc(Br)cc3F)ncnc2cc1OCC1CCN(C)CC1 [VANDETANIB],> 10,> 10,> 10,> 10,,5.8
